Molecules are shown by their SMILES. Some results are limits rather than exact numbers.

As a reminder, the melting point is the temperature of the solid-liquid transition. For the compound `Cc1cc(C(=O)NCO)ncc1C(c1c(F)ccc(F)c1F)S(=O)(=O)c1ccc(F)c(F)c1` (centres undefined), the melting point was in the range of 119 to 120 °C.
In the case of `CN1CCC(N(C)C(=O)c2ccc3nonc3c2)CC1`, the melting point was > 260 °C.
Next, `FC(F)(F)c1cccc(C2=NN3CCN=C3C=C2)c1`: 137 to 139 °C; `N=C(Nc1ccc(Cl)cc1)Nc1ncccc1OCc1c(F)ccc(F)c1F`: 153 to 156 °C; `CN(C)CCOc1ccc(-c2cccc(N)n2)c2ccccc12`: 98 to 106 °C.
For the compound `O=c1c2ccc(Cl)cc2[nH]c2c(O)nn(C3CCOc4ccccc43)c(=O)c12` (racemic), the melting point is > 300 °C.
The result for `O=C(O)Cc1ccccc1Cc1nc2c(F)c(F)cc(F)c2s1` reads 124 to 126 °C.
Next, `O=C(O)C(=NO)C(c1ccc(OCc2ccc3cc(F)ccc3n2)cc1)c1ccc(OCc2ccc3cc(F)ccc3n2)cc1`: 107 °C; `CC(SC1COC(c2ccc3cc(C(=O)Nc4ccc(C#N)cc4)ccc3c2)OC1)C(O)(Cn1cncn1)c1ccc(F)cc1F` (centres undefined): 114 °C; `Nc1ccc2c(c1)C(=O)N(c1cccc(C(=O)O)c1)C2=O`: 306 to 308 °C.
The result for `CN(c1ccccc1)c1ccc(-c2nc(C#N)c(C#N)nc2C#N)cc1` reads 187 °C; that for `COc1ccc(C2CNC(=O)C2)cc1OCC(O)CN1CCN(c2ccccc2)CC1` (centres undefined), 143 to 144 °C; that for `CC(C)(C)OC(=O)NC(C)(C)c1ccc(-c2nc(Nc3cccc(CCO)c3)ncc2C#N)cc1`, 164 °C.
The compound `CCNc1ncc2ccc(=O)n(C)c2n1` gave a melting point of 194 to 195 °C.
Next, `CC(C)c1c(C(=O)Nc2ccccc2)c(-c2ccccc2)c(-c2ccc(F)cc2)n1CC[C@@H]1C[C@H](CC(=O)OC(C)(C)C)OC(C)(C)O1`: 140 to 142 °C.
Next, `CCOC(=O)C=Cc1cc(OC)c(OC)c(OC)c1`: 63.4 °C; `CC1Oc2ccc(OCc3nc4cc(F)ccc4s3)cc2C(=O)C1Cc1cccc(NS(=O)(=O)C(F)(F)F)c1` (centres undefined): 183 to 185 °C; `Cn1cc(C(=O)NS(=O)(=O)c2cccs2)cn1`: 174 to 180 °C.
Next, `C=CC(=O)C(CC1CCOCC1)c1ccc(S(=O)(=O)C2CC2)cc1` (centres undefined): 92 to 93 °C; `CN(C)CCNc1ncc(C(=O)N(C)Cc2cc(C(F)(F)F)cc(C(F)(F)F)c2)c(-c2ccccc2)n1`: 110 °C.
The compound `CCCCCCCCCCCCCCCCCC[N+](=O)[O-]` returned a melting point of 47 to 50 °C.
Next, `COc1ccc(Cn2cnc3c(-c4ccco4)nc(C(C)C)nc32)cc1`: 123 °C; `CCCOc1nc2cccc(C(=O)OCC)c2n1Cc1ccc(-c2ccccc2C#N)cc1`: 90 to 92 °C; `CC(C)COP(C)(=O)CC(=O)CNC(=O)OC(C)(C)C` (centres undefined): 65 to 68 °C.
Next, `COCn1nccc1C(=O)c1cc2c(c(Cl)c1Cl)OC(C(=O)O)O2` (centres undefined): 168 to 170 °C; `N#CCC1CCN(c2ccc(N3C[C@@H](Cn4cc(C#N)nn4)OC3=O)cc2F)CC1`: 200 to 202 °C; `Cc1cccc2c1C=Cc1ccccc1C2(C)O` (centres undefined): 107 to 109 °C.
The result for `CCCCCCCCCCCCCCCCCCOCC(CO)NC(C)=O` (centres undefined) reads 82 to 85 °C.
`CS(=O)(=O)c1ccc(N2CC(O)(C(F)(F)F)N=C2c2ccccc2)cc1` (centres undefined) returned a melting point of 189 to 190 °C.
`CC(C#N)(c1ccccc1)c1ccc(Cl)nn1` (centres undefined) registered a melting point of 116 to 118 °C.
Next, `CCOC(=O)c1cc2c(C(F)(F)F)cc(OCC(=O)OC(C)(C)C)cc2n1C`: 98 to 100 °C.
Next, `CCOC(=O)C(=O)Nc1cccc(OCc2ccccc2)c1C(N)=O`: 151 to 153 °C; `CN(C)CCCOc1ccc(-c2nnc(CSCCOc3ccccc3)s2)cc1`: 72 to 73 °C; `COc1ccc(C)cc1NC(=O)Nc1ccc(C2=CCN(C(=O)Nc3cc(OCCO)ccc3Cl)CC2)cc1`: 139 to 142 °C.
On to `NCc1cc2cc(Cl)cc(-c3ccccc3)c2o1`, for which the melting point is > 225 °C.
`Cn1cc(C(N)=O)c([N+](=O)[O-])n1`: the melting point is 190 to 192 °C.
In turn, `Cc1ccc(C2c3c(C)c4c(c(C)c3OC2(C)C)CCN4)cc1` (centres undefined) registered a melting point of 135 to 136 °C.
The result for `CCOC(=O)C1=C(C)NN=C(c2ccco2)C1c1ccccc1` (centres undefined) reads 158 °C; that for `CC(CC1=C(c2cccc(O)c2)CCCNC1=O)N1CCCCC1` (centres undefined), 218 to 220 °C.
Compound `COc1ccc(C2c3cccc(O)c3C(=O)c3c(O)cccc32)c(OC)c1` yielded a melting point of 152 °C.
With `O=c1ccn(-c2ccc3c(c2)Cc2cc(=O)[nH]nc2-3)cc1`, the melting point is > 300 °C.
The result for `Clc1[nH]c2ccccc2c1Sc1ccccc1` reads 98 to 99 °C; that for `CON(C)C(=O)NC(CS)Cc1ccccc1` (single isomer, unassigned; (+)), 50 °C.
Next, `CCNCC1CCN(c2c(F)cc3c(=O)c(C(=O)O)cn(CC)c3c2F)C1` (centres undefined): 208 to 210 °C; `COc1ccc(-c2cc(Cl)c3cc(O)ccc3c2)cc1`: 116 to 118 °C; `CCOCCNc1nc(Cl)nc(N[C@@H](C)c2ccccc2)n1`: 103 °C.
Compound `Cc1c(NC(=O)OCCCl)cc([N+](=O)[O-])c(N)c1C` registered a melting point of 151 °C.
Next, `O=C(c1ccc(F)cc1)C1CCN(CCn2c(=O)[nH]c3ccsc3c2=O)CC1`: 141 to 143 °C; `O=C1CCC(CCO)N1` (centres undefined): 52 to 52.5 °C; `O=C(O)COc1ccc2cc(-c3oc4ccccc4c3C(=O)CC3CCCC3)ccc2c1`: 177 to 178 °C.
Next, `Nc1nnc(C(F)(F)Oc2ccccc2)s1`: 149 to 151 °C; `COc1ccc(Oc2ccccc2-c2cn(C(C)(C)C)c(N)c2C#N)cc1`: 171 to 172 °C; `CCC1Cc2cc(OC)ccc2C2CCC3(C)C(=O)CC(C)C3C12` (centres undefined): 120 to 122 °C.
Next, `COc1ccc2[nH]cc(C3=CCN(C(=O)NCC4CCC(c5ccccc5)(N(C)C)CC4)CC3)c2c1` (centres undefined): 98 to 104 °C; `c1ccc2c(c1)CC(CN1CCN(c3ccc4ccoc4c3)CC1)C2`: 168 to 170 °C; `CCOCOc1c(-c2ccc(C(=O)Nc3ccc(OC(C)=O)cc3)cc2)ccc2cc(OC)c(C34CC5CC(CC(C5)C3)C4)cc12`: 206 to 207 °C.
For the compound `Cc1cnc(-c2ccc3c(c2)c2cc(-c4ccc(Cl)cc4Cl)c(=O)n(C)c2n3C)o1`, the melting point lay within 289 to 292 °C.
The result for `CC(C)(C)OC(=O)C1CCC(c2ccco2)N1C(=O)OC(C)(C)C` (mixture of isomers) reads 70 °C; that for `CC(Oc1cccc2ccoc12)C(N)=NO` (centres undefined), 92 to 94 °C; that for `CC1=Nc2ccccc2C(=O)C1`, 198 to 200 °C.
Next, `Cc1nccn1CC(COc1cccc(Cl)c1)Sc1c(Cl)cccc1Cl` (centres undefined): 162 to 163 °C; `Cc1cn(C(C)(C)C(N)=O)nc1-c1ccccc1`: 105 to 106 °C.
Next, `COc1cccc(OC)c1C(=O)C=Cc1c(Cl)cccc1Cl`: 127 to 128 °C.
Turning to `O=C1C=C/C(=C/c2ccc(F)cc2)O1`, the melting point lay in the range of 140 to 142 °C.
Next, `CC(C)(C)OC(=O)[C@@](C)(C#N)[C@H](c1ccccc1C(F)(F)F)c1cccc2ccccc12` (racemic): 159 to 161 °C; `CCCOC(=O)C(C)Oc1ccc(Oc2cnc3cc(Cl)ccc3n2)cc1F` (centres undefined): 70 to 72 °C.
Next, `CCOC(=O)C1(C(=O)Nc2ccc(Cl)cc2CC)CC1`: 77 to 80 °C; `Nc1ncc(Br)nc1-c1ccccc1Cl`: 138 to 140 °C; `CS(=O)c1ccc(Oc2ccc([N+](=O)[O-])cc2)cc1` (centres undefined): 76 to 78 °C.
Next, `N#CSc1cnn(-c2nc(F)c(C(F)(F)F)cc2Cl)c1N`: 109 to 114 °C; `CCn1cc(C(=O)O)c(=O)c2c1SC(=NOCC(=O)O)C2`: 249 to 250 °C.
Turning to `COc1nc2c(cc1NC(=S)N1CCN(c3cc(C)cc(C)c3)CC1)CCCC2`, the melting point is 200 to 201 °C.
The compound `COc1cc2c(-c3ccnc(Cl)c3)c(CO)c(CO)cc2cc1OC1CCCC1` showed a melting point of 200 to 201 °C.
Next, `CCOC(OCC)c1nc2sc(C)c(C)n2c(=O)c1C`: 84 to 85 °C; `Cc1nccn1-c1nc(-c2ccc(Cl)c(Cl)c2)c(CCCO)o1`: 140 to 141 °C; `CCCC1(OCCO)CCNCC1`: 72 °C.
Next, `COc1ccc(-c2ccc3c(C#N)c(OC)ccc3c2)cc1`: 182 to 185 °C; `CN(C(=O)NCCO)C1c2ccccc2Oc2ccccc21`: 130 to 132 °C.
Next, `FC(F)(F)c1nnc2c(Cl)nc3ccc(Cl)cc3n12`: 133 to 135 °C; `CC1(C)NC(C(=O)O)C(C)(C)S1` (centres undefined): 206 to 208 °C; `Cc1c(NC(=O)c2ccc(-c3ccc4c(c3)CCO4)cc2)ccc2cc(CN3CCCC3)cnc12`: 176 to 177 °C.
In turn, `O=C(Nc1cccc(Cc2nnn[nH]2)c1)C(F)(F)C(F)(F)C(F)(F)F` registered a melting point of 148 to 151 °C.
In the case of `COc1cc(Nc2nccc(-c3cccc(NCc4cccnc4)c3)n2)cc(OC)c1OC`, the melting point fell in the range of 78 to 80 °C.
The result for `Cn1c(C(F)(F)F)ccc(-c2cc(S)c(Cl)cc2F)c1=O` reads 141 to 142 °C; that for `N#CC1=C(C2CCCCC2=O)Nc2n[nH]cc2C1c1cccc2nonc12` (centres undefined), > 270 °C.
The result for `O=C(Nc1ccc(Oc2cccc(Cl)c2)c(Cl)c1)c1ccccn1` reads 91.5 to 93.5 °C.
With `COc1cccc(Oc2c(NS(=O)(=O)c3ccc(C(C)(C)C)cc3)ncnc2OCCCO)c1`, the melting point lay within 113 to 114 °C.
Next, `COc1ccccc1SCCCCCCCC(=O)O`: 62 to 63 °C; `CNc1ccccc1C(=O)c1ccccc1`: 66 to 68 °C.

Values taken from a melting point compilation (Tetko et al.; mined from patent text by program, amines drawn as free bases though some values may be those of a salt).
